# Values quoted from earlier work as cited in patent publication EP3796908B1, “CONTROLLED RELEASE PROPIVERINE FORMULATIONS” (Santa Farma Ilaç Sanayi A.S., priority 2018, dated 2020).
# Where two headings read alike, the source gives them in different places.
# Assays:
# [1] = for maximal plasma concentrations reached after / mean absolute bioavailability: oral administration
# [2] = BCS classification
# [3] = administration of the ER capsule
smiles,measurement,setting,value
"CCCOC(C(=O)OC1CCN(C)CC1)(c1ccccc1)c1ccccc1 [propiverine, 1-methyl-4-piperidyl diphenylpropoxy acetate]",mean Cmax,[1]; [3],about 70 ng/ml
same,time in which Cmax is reached after administration,[1]; [3],≤ 9.5 h
same,maximal plasma concentrations reached after,[1]; immediate release,2.3 h
same,mean absolute bioavailability,[1]; immediate release,40.5%
same,maximal plasma concentrations reached after,[1]; modified release,9.9 h
same,mean absolute bioavailability,[1]; modified release,60.8 ± 17.3%
same,solubility,[2],high solubility
